Experimental data published in the supplement of paper PMC10307832.

Legend:
Assay in all cases: relative viability (nuclei count vs DMSO), 5 days (fraction); higher = more cells survive
[1] = compound: COC1=CC(c2cc3ccccc3[nH]2)=N/C1=C\c1[nH]c(C)cc1C [Obatoclax] + C[C@@H](Oc1cc(-c2cnn(C3CCNCC3)c2)cnc1N)c1c(Cl)ccc(F)c1Cl [Crizotinib] (partner 1 µM)
Procedure, shortened: (§1)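 Relative viability was taken as the ratio of nuclei in treated wells to nuclei in vehicle wells. Lung cancer cell lines in 1536-well plates received compounds by pin tool one day after seeding, either one drug alone or a fixed anchor-drug dose plus five library-drug doses (not always all listed) in √10 steps. Nuclei were counted on 4× images after 5 days of treatment, and values are medians of duplicate plates.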

[2] = compound: CC1=CC(=NN1)NC2=CC(=NC(=N2)/C=C/C3=CC=CC=C3)N4CCN(CC4)C + CC(C)C[C@H](NC(=O)[C@H](Cc1ccccc1)NC(=O)c1cnccn1)B(O)O [Bortezomib] (partner 0.002 µM)
Procedure, shortened: as §1

[3] = compound: CC(C)C[C@H](NC(=O)[C@H](Cc1ccccc1)NC(=O)c1cnccn1)B(O)O [Bortezomib] + N=C(N)NC(=N)NCCc1ccccc1 [Phenformin] (partner 250 µM)
Procedure, shortened: as §1

[4] = compound: COC1=CC(c2cc3ccccc3[nH]2)=N/C1=C\c1[nH]c(C)cc1C [Obatoclax] + CC(=O)c1c(C)c2cnc(Nc3ccc(N4CCNCC4)cn3)nc2n(C2CCCC2)c1=O [Palbociclib] (partner 0.5 µM)
Procedure, shortened: as §1

Cell Line: COR-L 105
- relative viability ([1]; first compound 0.01 µM): 0.802
- relative viability ([1]; first compound 0.03162 µM): 0.959
- relative viability ([1]; first compound 0.1 µM): 1
- relative viability ([1]; first compound 0.3162 µM): 0.51
- relative viability ([1]; first compound 1 µM): 0.522
- relative viability ([2]; first compound 0.08 µM): 0.744
- relative viability ([2]; first compound 0.253 µM): 0.988
- relative viability ([2]; first compound 0.8 µM): 0.76
- relative viability ([2]; first compound 2.53 µM): 0.263
- relative viability ([2]; first compound 8 µM): 0.231
- relative viability ([3]; first compound 0.0002 µM): 0.542
- relative viability ([3]; first compound 0.000632 µM): 0.4
- relative viability ([3]; first compound 0.002 µM): 0.428
- relative viability ([3]; first compound 0.006325 µM): 0.328
- relative viability ([3]; first compound 0.02 µM): 0.256
- relative viability ([4]; first compound 0.01 µM): 0.408
- relative viability ([4]; first compound 0.03162 µM): 0.441
- relative viability ([4]; first compound 0.1 µM): 0.375
- relative viability ([4]; first compound 0.3162 µM): 0.361
- relative viability ([4]; first compound 1 µM): 0.341

Cell Line: LU99A
- relative viability ([1]; first compound 0.01 µM): 0.614
- relative viability ([1]; first compound 0.03162 µM): 0.498
- relative viability ([1]; first compound 0.1 µM): 0.569
- relative viability ([1]; first compound 0.3162 µM): 0.236
- relative viability ([1]; first compound 1 µM): 0.233
- relative viability ([2]; first compound 0.08 µM): 1.13
- relative viability ([2]; first compound 0.253 µM): 0.993
- relative viability ([2]; first compound 0.8 µM): 0.779
- relative viability ([2]; first compound 2.53 µM): 0.25
- relative viability ([2]; first compound 8 µM): 0.127
- relative viability ([3]; first compound 0.0002 µM): 0.789
- relative viability ([3]; first compound 0.000632 µM): 0.782
- relative viability ([3]; first compound 0.002 µM): 0.898
- relative viability ([3]; first compound 0.006325 µM): 0.85
- relative viability ([3]; first compound 0.02 µM): 0.328
- relative viability ([4]; first compound 0.01 µM): 0.426
- relative viability ([4]; first compound 0.03162 µM): 0.377
- relative viability ([4]; first compound 0.3162 µM): 0.402
- relative viability ([4]; first compound 1 µM): 0.4

Cell Line: H3255
- relative viability ([1]; first compound 0.01 µM): 0.773
- relative viability ([1]; first compound 0.03162 µM): 0.87
- relative viability ([1]; first compound 0.1 µM): 0.828
- relative viability ([1]; first compound 0.3162 µM): 0.624
- relative viability ([1]; first compound 1 µM): 0.697
- relative viability ([2]; first compound 0.08 µM): 0.878
- relative viability ([2]; first compound 0.253 µM): 0.854
- relative viability ([2]; first compound 0.8 µM): 0.895
- relative viability ([2]; first compound 2.53 µM): 0.745
- relative viability ([2]; first compound 8 µM): 0.198
- relative viability ([3]; first compound 0.0002 µM): 0.368
- relative viability ([3]; first compound 0.000632 µM): 0.346
- relative viability ([3]; first compound 0.002 µM): 0.334
- relative viability ([3]; first compound 0.006325 µM): 0.307
- relative viability ([3]; first compound 0.02 µM): 0.288
- relative viability ([4]; first compound 0.01 µM): 0.308
- relative viability ([4]; first compound 0.03162 µM): 0.299
- relative viability ([4]; first compound 0.1 µM): 0.278
- relative viability ([4]; first compound 0.3162 µM): 0.327
- relative viability ([4]; first compound 1 µM): 0.324

Cell Line: NCI-H1734
- relative viability ([1]; first compound 0.01 µM): 0.665
- relative viability ([1]; first compound 0.03162 µM): 0.701
- relative viability ([1]; first compound 0.3162 µM): 0.625
- relative viability ([1]; first compound 1 µM): 0.447
- relative viability ([2]; first compound 0.08 µM): 0.814
- relative viability ([2]; first compound 0.253 µM): 0.999
- relative viability ([2]; first compound 0.8 µM): 0.731
- relative viability ([2]; first compound 2.53 µM): 0.234
- relative viability ([2]; first compound 8 µM): 0.13
- relative viability ([3]; first compound 0.0002 µM): 0.454
- relative viability ([3]; first compound 0.000632 µM): 0.37
- relative viability ([3]; first compound 0.002 µM): 0.356
- relative viability ([3]; first compound 0.006325 µM): 0.155
- relative viability ([3]; first compound 0.02 µM): 0.105
- relative viability ([4]; first compound 0.01 µM): 0.3
- relative viability ([4]; first compound 0.03162 µM): 0.338
- relative viability ([4]; first compound 0.1 µM): 0.337
- relative viability ([4]; first compound 0.3162 µM): 0.32
- relative viability ([4]; first compound 1 µM): 0.303

Cell Line: NCI-H1915
- relative viability ([1]; first compound 0.01 µM): 0.898
- relative viability ([1]; first compound 0.03162 µM): 0.835
- relative viability ([1]; first compound 0.1 µM): 0.864
- relative viability ([1]; first compound 0.3162 µM): 0.877
- relative viability ([1]; first compound 1 µM): 0.901
- relative viability ([2]; first compound 0.08 µM): 1.01
- relative viability ([2]; first compound 0.253 µM): 1.04
- relative viability ([2]; first compound 0.8 µM): 1.01
- relative viability ([2]; first compound 2.53 µM): 0.555
- relative viability ([2]; first compound 8 µM): 0.54
- relative viability ([3]; first compound 0.0002 µM): 0.361
- relative viability ([3]; first compound 0.000632 µM): 0.356
- relative viability ([3]; first compound 0.002 µM): 0.371
- relative viability ([3]; first compound 0.006325 µM): 0.147
- relative viability ([3]; first compound 0.02 µM): 0.0571
- relative viability ([4]; first compound 0.01 µM): 0.527
- relative viability ([4]; first compound 0.03162 µM): 0.557
- relative viability ([4]; first compound 0.1 µM): 0.521
- relative viability ([4]; first compound 0.3162 µM): 0.486
- relative viability ([4]; first compound 1 µM): 0.522

Cell Line: NCI-H2009
- relative viability ([1]; first compound 0.01 µM): 1.07
- relative viability ([1]; first compound 0.03162 µM): 0.905
- relative viability ([1]; first compound 0.1 µM): 0.952
- relative viability ([1]; first compound 0.3162 µM): 0.355
- relative viability ([1]; first compound 1 µM): 0.257
- relative viability ([2]; first compound 0.08 µM): 1.04
- relative viability ([2]; first compound 0.253 µM): 0.54
- relative viability ([2]; first compound 0.8 µM): 1.11
- relative viability ([2]; first compound 2.53 µM): 0.423
- relative viability ([2]; first compound 8 µM): 0.15
- relative viability ([3]; first compound 0.0002 µM): 0.512
- relative viability ([3]; first compound 0.000632 µM): 0.479
- relative viability ([3]; first compound 0.002 µM): 0.492
- relative viability ([3]; first compound 0.006325 µM): 0.113
- relative viability ([3]; first compound 0.02 µM): 0.0828
- relative viability ([4]; first compound 0.01 µM): 0.215
- relative viability ([4]; first compound 0.03162 µM): 0.224
- relative viability ([4]; first compound 0.1 µM): 0.194
- relative viability ([4]; first compound 0.3162 µM): 0.188
- relative viability ([4]; first compound 1 µM): 0.123

Cell Line: NCI-H1651
- relative viability ([1]; first compound 0.01 µM): 0.906
- relative viability ([1]; first compound 0.03162 µM): 0.831
- relative viability ([1]; first compound 0.1 µM): 0.863
- relative viability ([1]; first compound 0.3162 µM): 0.89
- relative viability ([1]; first compound 1 µM): 0.891
- relative viability ([2]; first compound 0.08 µM): 0.946
- relative viability ([2]; first compound 0.253 µM): 0.892
- relative viability ([2]; first compound 0.8 µM): 0.865
- relative viability ([2]; first compound 2.53 µM): 0.876
- relative viability ([2]; first compound 8 µM): 0.448
- relative viability ([3]; first compound 0.0002 µM): 0.354
- relative viability ([3]; first compound 0.000632 µM): 0.312
- relative viability ([3]; first compound 0.002 µM): 0.229
- relative viability ([3]; first compound 0.006325 µM): 0.101
- relative viability ([3]; first compound 0.02 µM): 0.106
- relative viability ([4]; first compound 0.01 µM): 0.522
- relative viability ([4]; first compound 0.03162 µM): 0.501
- relative viability ([4]; first compound 0.1 µM): 0.524
- relative viability ([4]; first compound 0.3162 µM): 0.553
- relative viability ([4]; first compound 1 µM): 0.554

Cell Line: HOP-62
- relative viability ([1]; first compound 0.01 µM): 0.837
- relative viability ([1]; first compound 0.03162 µM): 0.911
- relative viability ([1]; first compound 0.1 µM): 0.998
- relative viability ([1]; first compound 0.3162 µM): 0.796
- relative viability ([1]; first compound 1 µM): 1
- relative viability ([2]; first compound 0.08 µM): 0.9
- relative viability ([2]; first compound 0.253 µM): 0.549
- relative viability ([2]; first compound 0.8 µM): 1.07
- relative viability ([2]; first compound 2.53 µM): 0.403
- relative viability ([2]; first compound 8 µM): 0.107
- relative viability ([3]; first compound 0.0002 µM): 0.661
- relative viability ([3]; first compound 0.000632 µM): 0.625
- relative viability ([3]; first compound 0.002 µM): 0.54
- relative viability ([3]; first compound 0.006325 µM): 0.151
- relative viability ([3]; first compound 0.02 µM): 0.0609
- relative viability ([4]; first compound 0.01 µM): 0.425
- relative viability ([4]; first compound 0.03162 µM): 0.393
- relative viability ([4]; first compound 0.1 µM): 0.415
- relative viability ([4]; first compound 0.3162 µM): 0.499
- relative viability ([4]; first compound 1 µM): 0.455
